According to US20250213574A1, “THERAPEUTIC COMBINATIONS COMPRISING UBIQUITIN- SPECIFIC-PROCESSING PROTEASE 1 (USP1) INHIBITORS AND CHEMOTHERAPY AGENTS” (KSQ Therapeutics, Inc., priority 2022, published 2025):
Like-named read-outs stand apart in the source and are kept apart here. Blank lines part the entries; values can stand above or below the compound they belong to.

Tests used:
Format in all cases: cell-based
ACCMESO1 = test: Colony formation (CFU) assay, ACCMESO1; settings: ACC-MESO-1, 336 h; ACCMESO1, pleura; CFU ~14 days; wells with DMSO or 300 nM Compound 1; read-out: Chemotherapy nM IC50s
Protocol: (§1) In vitro experiments were conducted using the colony formation unit (CFU) assay on various cell lines. The CFU assay involved first establishing what cell plating density enabled the development of clearly interspersed colonies on a six-well plate when left to grow for around 14 days. […] At or around day 14 when clearly interspersed colonies were visible in the DMSO-treated wells, the cells were fixed and stained using 0.1% crystal violet in 10% ethanol for 20 minutes at room temperature. The plates were imaged then the amount of crystal violet stain in each well was quantified by extracting the crystal violet into 10% acetic acid and the absorbance measured at 565 nm.
(§2) For certain cell lines, multiple IC50 values were taken, and those are separated by commas. Synergy scores are in parentheticals.

COV362 = test: Colony formation (CFU) assay, COV362; settings: 336 h; COV362, ovary; CFU ~14 days; wells with DMSO or 300 nM Compound 1; read-out: Chemotherapy nM IC50s
Protocol: as §1, §2

HCC1937 = test: Colony formation (CFU) assay, HCC1937; settings: HCC1937, breast, CFU ~14 days, wells with DMSO or 300 nM Compound 1, read-out: Chemotherapy nM IC50s
Protocol: as §1, §2

KALS1 = test: Colony formation (CFU) assay, KALS1; settings: Homo sapiens, KALS-1, 336 h; KALS1, nervous system; CFU ~14 days; wells with DMSO or 300 nM Compound 1; read-out: Chemotherapy nM IC50s
Protocol: as §1, §2

MERO14 = test: Colony formation (CFU) assay, MERO14; settings: CFU ~14 days, wells with DMSO or 300 nM Compound 1, read-out: Chemotherapy nM IC50s
Protocol: as §1, §2

MSTO211H = test: Colony formation (CFU) assay, MSTO211H; settings: pleura, CFU ~14 days, wells with DMSO or 300 nM Compound 1, read-out: Chemotherapy nM IC50s
Protocol: as §1, §2

NCIH2452 = test: Colony formation (CFU) assay, NCIH2452; settings: Homo sapiens, NCI-H2452, 336 h; NCIH2452, pleura; CFU ~14 days; wells with DMSO or 300 nM Compound 1; read-out: Chemotherapy nM IC50s
Protocol: as §1, §2

OVSAHO = test: Colony formation (CFU) assay, OVSAHO; settings: Homo sapiens, 336 h, ovary, CFU ~14 days, wells with DMSO or 300 nM Compound 1, read-out: Chemotherapy nM IC50s
Protocol: as §1, §2

UWB1289 = test: Colony formation (CFU) assay, UWB1289; settings: 336 h; UWB1289, ovary; CFU ~14 days; wells with DMSO or 300 nM Compound 1; read-out: Chemotherapy nM IC50s
Protocol: as §1, §2

647V = test: Colony formation (CFU) assay, 647V; settings: Homo sapiens, 336 h, bladder, CFU ~14 days, wells with DMSO or 300 nM Compound 1, read-out: Chemotherapy nM IC50s
Protocol: as §1, §2

HCC1806 = test: Colony formation (CFU) assay, HCC1806; settings: HCC1806, breast, CFU ~14 days, wells with DMSO or 300 nM Compound 1, read-out: Chemotherapy nM IC50s (converted)
Protocol: as §1, §2

SUM149PT = test: Colony formation (CFU) assay, SUM149PT; settings: breast
Protocol: as §1, §2

BECKER = test: Colony formation (CFU) assay, BECKER; settings: CFU ~14 days, wells with DMSO or 300 nM Compound 1, read-out: Chemotherapy nM IC50s
Protocol: as §1, §2

NCIH1650 = test: Colony formation (CFU) assay, NCIH1650; settings: NCIH1650, lung, CFU ~14 days, wells with DMSO or 300 nM Compound 1, read-out: Chemotherapy nM IC50s
Protocol: as §1, §2

NCIH1915 = test: Colony formation (CFU) assay, NCIH1915; settings: NCIH1915, lung, CFU ~14 days, wells with DMSO or 300 nM Compound 1, read-out: Chemotherapy nM IC50s
Protocol: as §1, §2

U251MG = test: Colony formation (CFU) assay, U251MG; settings: nervous system, CFU ~14 days, wells with DMSO or 300 nM Compound 1, read-out: Chemotherapy nM IC50s
Protocol: as §1, §2

A549 = test: Colony formation (CFU) assay, A549; settings: Homo sapiens, 336 h; A549, lung; CFU ~14 days; wells with DMSO or 300 nM Compound 1; read-out: Chemotherapy nM IC50s
Protocol: as §1, §2

CAPAN2 = test: Colony formation (CFU) assay, CAPAN2; settings: CAPAN2, pancreas, CFU ~14 days, wells with DMSO or 300 nM Compound 1, read-out: Chemotherapy nM IC50s
Protocol: as §1, §2

HPAC = test: Colony formation (CFU) assay, HPAC; settings: Homo sapiens, 336 h, pancreas, CFU ~14 days, wells with DMSO or 300 nM Compound 1, read-out: Chemotherapy nM IC50s
Protocol: as §1, §2

MDAMB231 = test: Colony formation (CFU) assay, MDAMB231; settings: MDAMB231, breast, CFU ~14 days, wells with DMSO or 300 nM Compound 1, read-out: Chemotherapy nM IC50s
Protocol: as §1, §2

Compound: COc1cccc2c1C(=O)c1c(O)c3c(c(O)c1C2=O)C[C@@](O)(C(=O)CO)C[C@@H]3O[C@H]1C[C@H](N)[C@H](O)[C@H](C)O1 [Dox., doxorubicin]
IC50 (ACCMESO1): 19 nM | IC50 (COV362): 108 nM | IC50 (HCC1937): 4 nM | IC50 (HCC1937; Homo sapiens, HCC1937, 336 h): 8 nM | IC50 (KALS1): 52 nM | IC50 (MERO14; 336 h): 17 nM | IC50 (MERO14): 14 nM | IC50 (MSTO211H; Homo sapiens, MSTO-211H, 336 h): 16 nM | IC50 (MSTO211H): 8 nM | IC50 (NCIH2452): 21 nM | IC50 (OVSAHO): 147 nM | IC50 (UWB1289): 76 nM

IC50 (647V): 2 nM | IC50 (HCC1806; Homo sapiens, 336 h): < 1 nM | IC50 (SUM149PT; Homo sapiens, 336 h, CFU ~14 days, wells with DMSO or 300 nM Compound 1, read-out: Chemotherapy nM IC50s): 1 nM
Compound: Nc1ccn([C@@H]2O[C@H](CO)[C@@H](O)C2(F)F)c(=O)n1 [Gem., gemcitabine]
synergy score (SUM149PT; chemotherapy agent in combination with 300 nM Compound 1): (−1)

IC50 (BECKER): 837 nM | IC50 (NCIH1650): 270 nM | IC50 (NCIH1915): 500 nM | IC50 (U251MG): 583 nM
Compound: COc1cc([C@@H]2c3cc4c(cc3[C@@H](O[C@@H]3O[C@@H]5CO[C@@H](C)O[C@H]5[C@H](O)[C@H]3O)[C@H]3COC(=O)[C@H]23)OCO4)cc(OC)c1O [Etop., etoposide]

Compound: CC(=O)O[C@H]1C(=O)[C@@]2(C)[C@H]([C@H](OC(=O)c3ccccc3)[C@]3(O)C[C@H](OC(=O)[C@H](O)[C@@H](NC(=O)c4ccccc4)c4ccccc4)C(C)=C1C3(C)C)[C@]1(OC(C)=O)CO[C@@H]1C[C@@H]2O [Pacli., paclitaxel]
IC50 (A549): 2 nM | IC50 (CAPAN2): < 1 nM | IC50 (CAPAN2; Homo sapiens, Capan-2, 336 h): 2 nM | IC50 (COV362): 13 nM | IC50 (HCC1806): < 1 nM | IC50 (HCC1806; Homo sapiens, HCC1806, 336 h): 1 nM | IC50 (HPAC): 3 nM | IC50 (MDAMB231; Homo sapiens, MDA-MB-231, 336 h): 1 nM | IC50 (MDAMB231): < 1 nM | IC50 (NCIH1650; Homo sapiens, NCI-H1650, 336 h): 1 nM | IC50 (NCIH1650): < 1 nM | IC50 (NCIH1915; NCI-H1915, 336 h): < 1 nM | IC50 (OVSAHO): 78 nM | IC50 (UWB1289): 43 nM
